Source: ChEMBL document CHEMBL1134176, “Structure-activity relationships of novel anti-malarial agents. Part 2: cinnamic acid derivatives” (Bioorg Med Chem Lett, 2001)

Each compound was assayed on Plasmodium falciparum (assay: Inhibitory activity against Plasmodium falciparum Dd2 in erythrocytes).
Assay type: functional, organism-based

SMILES	IC50 [nM]
COc1ccc(/C=C/C(=O)Nc2ccc(NC(=O)Cc3ccc(C)cc3)c(C(=O)c3ccccc3)c2)cc1	1300
Cc1ccc(CC(=O)Nc2ccc(NC(=O)/C=C/c3ccc(C(F)(F)F)cc3)cc2C(=O)c2ccccc2)cc1	5700
C[C@@H]1CC[C@H]2[C@@H](C)C(=O)O[C@@H]3O[C@@]4(C)CC[C@@H]1[C@]32OO4 [ARTEMISININ]	18
CC1(C)N=C(N)N=C(N)N1c1ccc(Cl)cc1 [CYCLOGUANIL]	2200
COC(=O)c1ccc(/C=C/C(=O)Nc2ccc(NC(=O)Cc3ccc(C)cc3)c(C(=O)c3ccccc3)c2)cc1	1000
CCc1ccc(/C=C/C(=O)Nc2ccc(NC(=O)Cc3ccc(C)cc3)c(C(=O)c3ccccc3)c2)cc1	1200
Cc1ccc(CC(=O)Nc2ccc(NC(=O)/C=C/c3ccc(C(C)(C)C)cc3)cc2C(=O)c2ccccc2)cc1	3000
Cc1ccc(CC(=O)Nc2ccc(NC(=O)/C=C/c3ccc(Cl)cc3)cc2C(=O)c2ccccc2)cc1	5500
Cc1ccc(CC(=O)Nc2ccc(NC(=O)/C=C/c3ccc(N)cc3)cc2C(=O)c2ccccc2)cc1	5500
CCCCOc1ccc(/C=C/C(=O)Nc2ccc(NC(=O)Cc3ccc(C)cc3)c(C(=O)c3ccccc3)c2)cc1	1100
C=C[C@H]1CN2CC[C@H]1C[C@H]2[C@H](O)c1ccnc2ccc(OC)cc12 [QUININE]	380
Cc1ccc(CC(=O)Nc2ccc(NC(=O)/C=C/c3ccc(C(C)C)cc3)cc2C(=O)c2ccccc2)cc1	1200
Cc1ccc(/C=C/C(=O)Nc2ccc(NC(=O)Cc3ccc(C)cc3)c(C(=O)c3ccccc3)c2)cc1	1400
Cc1ccc(CC(=O)Nc2ccc(NC(=O)/C=C/c3ccc(C=O)cc3)cc2C(=O)c2ccccc2)cc1	40000
CCCOc1ccc(/C=C/C(=O)Nc2ccc(NC(=O)Cc3ccc(C)cc3)c(C(=O)c3ccccc3)c2)cc1	200
CCCCN(CCCC)CCC(O)c1cc2c(Cl)cc(Cl)cc2c2cc(C(F)(F)F)ccc12 (stereo unspecified) [HALOFANTRINE]	9.3
OC(c1cc(C(F)(F)F)nc2c(C(F)(F)F)cccc12)C1CCCCN1 (stereo unspecified) [MEFLOQUINE]	57
CCc1nc(N)nc(N)c1-c1ccc(Cl)cc1 [PYRIMETHAMINE]	2500
Cc1ccc(CC(=O)Nc2ccc(NC(=O)/C=C/c3ccccc3)cc2C(=O)c2ccccc2)cc1	5800
O=C1C(O)=C([C@H]2CC[C@H](c3ccc(Cl)cc3)CC2)C(=O)c2ccccc21 [ATOVAQUONE]	1
CCOc1ccc(/C=C/C(=O)Nc2ccc(NC(=O)Cc3ccc(C)cc3)c(C(=O)c3ccccc3)c2)cc1	850
Cc1ccc(CC(=O)Nc2ccc(NC(=O)/C=C/c3ccc([N+](=O)[O-])cc3)cc2C(=O)c2ccccc2)cc1	6500
Cc1ccc(CC(=O)Nc2ccc(NC(=O)/C=C/c3ccc(C#N)cc3)cc2C(=O)c2ccccc2)cc1	> 100000
Cc1ccc(CC(=O)Nc2ccc(NC(=O)/C=C/c3ccc(C=C(C#N)C#N)cc3)cc2C(=O)c2ccccc2)cc1	43000
Cc1ccc(CC(=O)Nc2ccc(NC(=O)CCc3ccccc3)cc2C(=O)c2ccccc2)cc1	2700
Cc1ccc(CC(=O)Nc2ccc(NC(=O)/C=C/c3ccc(Br)cc3)cc2C(=O)c2ccccc2)cc1	3200
